Data on 21 molecules can be found in PMC6254971, “Antimalarial Activity of Ultra-Short Peptides” (Molecules, 2009).

For test [1], the system named is Plasmodium berghei schizonts (ANKA 2.34), chloroquine-sensitive. The experiment in a line: microbe, parasite or virus in culture. The following applies: for Chemosuppression of P. berghei schizont cultures (%): compound 200 μM, schizonts counted in 2,000 erythrocytes. Here is the method:
Mature P. berghei schizonts were prepared as described by Thathy and Menard. […] Parasites were incubated for 16 h at 37 °C as described. Chloroquine (C6628 Sigma Chloroquine diphosphate salt solid, ≥98% purity) was used as positive control. Samples of 0.5 mL of each culture were taken to prepare smears and used to count numbers of schizonts in 2,000 erythrocytes. The IC50 values of each compound were determined using concentrations of 5, 50, 100, and 200 µM, according to Khalid et al., and by extrapolation from the concentration response curve. The IC50 value represents the drug concentration producing a 50% reduction in the number of P. berghei schizonts (compared to drug-free control cultures).

For test [2], the system named is trophozoite cysteine proteinase (TCP). Further details: method as in PMID 1939639, PMID 8807047. The following applies: cited from earlier work.
For another test, the system named is P. falciparum. Further details: method as in 6 sources, ref 23 = [23]; PMID 16723585; doi:10.1128/AAC.00022-06; 23. Parikh S. Liu J. Sijwali P. Gut J. Goldberg D.E. Rosenthal P.J. Antimalarial effects of human immunodeficiency virus type 1 protease inhibitors differ from those of the aspartic protease inhibitor ||| ref 24 = [24]; PMID 11172676; doi:10.2174/0929867013373787; 24. Meinke P.T. Liberator P. Histone deacetylase: A target for antiproliferative and antiprotozoal agents Current Med. Chem. 2001 8 211 235 10.2174/0929867013373787 11172676 ||| ref 12 = [12]; PMID 16643062; doi:10.1021/np050549h; 12. Thongtan J. Saenboonrueng J. Rachtawee P. Isaka M. An antimalarial tetrapeptide from the entomopathogenic fungus Hirsutella sp. BCC 1528 J. Nat. Prod. 2006 69 713 714 10.1021/np050549h 16643062 ||| ref 25 = [25]; PMID 18305429; doi:10.3390/molecules13020432; 25. Sathe M. Thavaselvam D. Srivastava A.K. Kaushik M.P. Synthesis and antimalarial evaluation of cyclic β-amino acid-containing dipeptides Molecules 2008 13 432 443 10.3390/molecules13020432 18305429 ||| ref 30, 31 = [30]; PMID 1939639; doi:10.1172/JCI115456; 30. Rosenthal P.J. Wollish W.S. Palmer J.T. Rasnick D. Antimalarial effects of peptide inhibitors of a Plasmodium falciparum cysteine proteinase J. Clin. Invest. 1991 88 1467 1472 10.1172/JCI115456 19 || [31]; PMID 8807047; doi:10.1128/aac.40.7.1600; 31. Rosenthal P.J. Olson J.E. Lee G.K. Palmer J.T. Klaus J.L. Rasnick D. Antimalarial effects of vinyl sulfone cysteine proteinase inhibitors Antimicrob. Agents Chemother. 1996 40 1600 1603 8807047 10 ||| ... The conditions noted are these: cited from earlier work; for IC50: read-out: IC50 against P. falciparum; for IC50 in vitro: maturation schizonts and total growth inhibition assays.

A further test concerns malarial infected mice. The conditions noted are these: four days of subcutaneous administration; cited from earlier work.
Another test concerns P. berghei. Further details: method as in 2 sources, ref 29 = [29]; PMID 8917558; doi:10.1073/pnas.93.23.13143; 29. Darkin-Rattray S.J. Gurnett A.M. Myers R.W. Dulski P.M. Crumley T.M. Allocco J.J. Cannova C. Meinke P.T. Colletti S.L. Bednarek M.A. Singh S.B. Goetz M.A. Dombrowski A.W. Polishook J.D. Schmatz D. ||| ref 25 = [25]; PMID 18305429; doi:10.3390/molecules13020432; 25. Sathe M. Thavaselvam D. Srivastava A.K. Kaushik M.P. Synthesis and antimalarial evaluation of cyclic β-amino acid-containing dipeptides Molecules 2008 13 432 443 10.3390/molecules13020432 18305429. The conditions noted are these: cited from earlier work.

Where [3] appears, read: 16 h at 37 °C, duplicate, averaged.
Setting [4] is: read-out: IC50 (50% reduction in the number of P. berghei schizonts), 16 h at 37 °C, concentrations 5, 50, 100, 200 µM, extrapolation from concentration response curve, duplicate, averaged.

Where two headings read alike, the source gives them in different places. Non-standard residues stand in square brackets, D forms with d. Residues, ends and D or L forms follow the SMILES beside them. No end group written: not given here. *: point of attachment. Orn = NCCC[C@H](N)C(=O)O; Cbz = O=C(OCc1ccccc1)*; CH2F = FC*

`CCN(CC)CCCC(C)Nc1ccnc2cc(Cl)ccc12` (stereo not shown) [Chloroquine]: the IC50 in test [1] (Plasmodium berghei, 16 h, read-out: IC50 (50% reduction in the number of P. berghei schizonts)) was found to be 0.06 µM. Moreover, the “Chemosuppression of P. berghei schizont cultures (%)” value in test [1] (setting [3]) is 100%.

In turn, `CC(C)[C@H](NC(=O)[C@H](CCCCN)NC(=O)[C@H](Cc1ccccc1)NC(=O)[C@@H](N)CCCN)C(=O)O` [Compound 6, Orn-Phe-Lys-Val] (H-[Orn]FKV-OH; N-terminus assumed) gave an IC50 in test [1] (16 h) of over 200 µM. Moreover, the “Chemosuppression of P. berghei schizont cultures (%)” value in test [1] (setting [3]) came to 26.58%. The “antimalarial activity in words (P. berghei schizont cultures)” value in test [1] (in vitro, 16 h) was “inactive”.

Take “Cbz-Phe-Arg-CH2F [peptidylfluoromethyl ketone]”: in test [2], the “inhibition of trophozoite cysteine proteinase” value is recorded as “very potent inhibitor”.

With `CC(C)[C@H](NC(=O)[C@@H](N)CCCCN)C(=O)N[C@@H](Cc1ccccc1)C(=O)N1CCC[C@H]1C(=O)O` [Compound 8, Lys-Val-Phe-Pro] (H-KVFP-OH), the IC50 in test [1] (setting [4]) was 51.3 µM.

On to hirsutellic A acid, for which the IC50 with P. falciparum is 8 µM.

morpholine urea (Mu)-Phe-HPh-CH2F: the “cured malarial infected mice” value with malarial infected mice is given as 80%.

Take `CC(C)[C@H](NC(=O)[C@H](CCCN)NC(=O)[C@@H](N)Cc1ccccc1)C(=O)O` [Compound 9, Phe-Orn-Val] (H-Phe-[Orn]-Val-OH): in test [1] (16 h), the IC50 came out at 120 µM.

As for `NCCCC[C@H](N)C(=O)N[C@@H](CCCN)C(=O)N[C@@H](Cc1ccccc1)C(=O)N[C@@H](CCCN)C(=O)O` [Compound 3, Lys-Orn-Phe-Orn] (H-K[Orn]F[Orn]-OH), the IC50 in test [1] (16 h) turned out to be 13.5 µM.

Turning to `COC(=O)N[C@H](C(=O)N[C@@H](Cc1ccccc1)[C@@H](O)CN(Cc1ccc(-c2ccccn2)cc1)NC(=O)[C@@H](NC(=O)OC)C(C)(C)C)C(C)(C)C` [atazanavir], in the test with P. falciparum, the “inhibition of P. falciparum in vitro” value is on record as “inhibit P. falciparum in vitro”.

The molecule `NCCCC[C@H](N)C(=O)N[C@@H](Cc1ccccc1)C(=O)N[C@@H](Cc1ccccc1)C(=O)N[C@@H](CCCN)C(=O)O` [Compound 5, Lys-Phe-Phe-Orn] (H-KFF[Orn]-OH) had a concentration for half-maximal inhibition (IC50) in test [1] (16 h) of 2.57 µM.

Regarding “2-(2-tert-butoxycarbonylamino-3-phenyl-propionylamino)-cyclooctanecarboxylic acid methyl ester”, the “in vivo antimalarial activity against P. berghei” value with P. berghei is recorded as “active in vivo”. Further, the IC50 in vitro in the test with P. falciparum was 3.64 µg/mL.

In the case of apicidin A, in the test with P. falciparum, the “MIC against P. falciparum” value was 0.125 µg/mL.

Take F[Orn]F[Orn] [Compound 4]: the “Chemosuppression of P. berghei schizont cultures (%)” value in test [1] (setting [3]) is listed as 85.94%. In test [1] (setting [4]), the IC50 was 3.31 µM.

On to HC-toxin I, for which, in the test on P. falciparum, the “MIC against P. falciparum” value was 0.031 µg/mL.

Take `CC(C)(C)NC(=O)[C@@H]1C[C@@H]2CCCC[C@@H]2CN1C[C@@H](O)[C@H](Cc1ccccc1)NC(=O)[C@H](CC(N)=O)NC(=O)c1ccc2ccccc2n1` [saquinavir]: the “inhibition of P. falciparum in vitro” value in the test on P. falciparum is recorded as “inhibit P. falciparum in vitro”.

`CC(C)[C@H](NC(=O)[C@@H](N)CCCCN)C(=O)N1CCC[C@H]1C(=O)N[C@@H](CCCN)C(=O)O` [Compound 7, Lys-Val-Pro-Orn] (H-KVP[Orn]-OH; N-terminus assumed) showed a half-inhibitory concentration (IC50) in test [1] (16 h) of over 200 µM. Also, the “Chemosuppression of P. berghei schizont cultures (%)” value in test [1] (setting [3]) is reported as 27.39%.

With apicidin, in the test with P. berghei, the “in vivo antimalarial activity against P. berghei” value is “potent in vivo antimalarial agent”. Further, the “MIC against P. falciparum” value in the test on P. falciparum was 0.125 µg/mL.

The molecule `CC[C@H](C)[C@H](N)C(=O)N[C@@H](CCCCN)C(=O)N[C@@H](Cc1ccccc1)C(=O)N[C@@H](CCCN)C(=O)O` [Compound 1, Ile-Lys-Phe-Orn] (H-IKF[Orn]-OH) yielded an IC50 in test [1] (16 h) of 32.4 µM.

Turning to pepstatin A, the IC50 in the test with P. falciparum is 7.5 µM.

For the molecule “2-(2-tert-butoxycarbonylamino-4-methylpentanoyl-amino)-cyclooctanecarboxylic acid methyl ester”, the IC50 in vitro with P. falciparum is 3.87 µg/mL.

As to `CC(C)[C@H](N)C(=O)N[C@@H](CCCCN)C(=O)N[C@@H](Cc1ccccc1)C(=O)N[C@@H](CCCN)C(=O)O` [Compound 2, Val-Lys-Phe-Orn] (H-VKF[Orn]-OH), it took 10 µM to reach half-maximal inhibition in test [1] (16 h) (IC50).
